Experimental data published in US20230099344A1, “COMPOUNDS AND METHODS FOR THE TARGETED DEGRADATION OF IRAK-4” (Arvinas Operations, Inc., priority 2021, published 2023).
pIC50: −log10 of the molar value.

Experiments:
Assay type in all cases: cell-based
IRAK-4 = target: T1, IRAK-4 (Homo sapiens, UniProt Q9NWZ3); assay: IRAK-4 ELISA, PBMC degradation; set-up: endogenous in cells; host or cells: PBMC; settings: treated overnight
T1 sequence (Q9NWZ3 1-460): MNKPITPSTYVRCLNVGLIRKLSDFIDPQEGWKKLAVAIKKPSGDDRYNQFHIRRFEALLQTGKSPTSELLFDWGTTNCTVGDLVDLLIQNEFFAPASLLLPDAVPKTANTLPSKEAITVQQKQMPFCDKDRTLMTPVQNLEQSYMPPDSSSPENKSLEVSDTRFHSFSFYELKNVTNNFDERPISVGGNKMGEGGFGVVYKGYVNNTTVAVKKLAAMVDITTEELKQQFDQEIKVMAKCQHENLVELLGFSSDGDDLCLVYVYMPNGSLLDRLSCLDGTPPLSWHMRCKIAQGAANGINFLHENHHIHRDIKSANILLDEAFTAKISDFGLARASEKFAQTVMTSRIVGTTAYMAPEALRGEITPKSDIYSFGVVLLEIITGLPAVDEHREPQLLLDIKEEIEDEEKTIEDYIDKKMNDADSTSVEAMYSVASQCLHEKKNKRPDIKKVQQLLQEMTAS
Summary of the method: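 Readout: IRAK-4 protein level in cell lysate, sandwich ELISA. Cells: OCI-Ly10 at 1×10^6/ml or PBMC at 2×10^6/ml, compound added same day, overnight incubation.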

IL6 [1] = assay: R848 stimulated IL6 inhibition assay in PBMC; settings: PBMC, human PBMCs, R848 stimulation, compound overnight, IL6 by MSD after 24 hrs; for Dmax: Homo sapiens, 24 h, read-out: R848 stim IL6 inhibition Dmax; for pIC50: read-out: R848 stim IL6 inhibition IC50
Summary of the method: (§1)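 Read-out: MSD quantification of IL6 or IL8 in media collected 24 hrs after stimulation. Human PBMCs (2.0×10^6 cells/mL) received compound overnight before stimulant dosing at an EC50 concentration determined per donor.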

IL6 [2] = assay: LPS stimulated IL6 inhibition assay in PBMC; settings: Homo sapiens, PBMC, 24 h, human PBMCs, LPS stimulation, compound overnight, IL6 by MSD after 24 hrs; for Dmax: read-out: LPS Stim IL6 inhibition Dmax; for pIC50: read-out: LPS stim IL6 inhibition IC50
Summary of the method: as §1

| SMILES | DC50 (IRAK-4) | Dmax (IRAK-4) | PBMC DC90 (IRAK-4) | pIC50 (IL6 [1]) | pIC50 (IL6 [2]) | Dmax (IL6 [1]) | Dmax (IL6 [2]) |
| --- | --- | --- | --- | --- | --- | --- | --- |
| CN(CCN1CCN(c2ccc3c(c2)C(=O)N(C2CCC(=O)NC2=O)C3=O)CC1)[C@H]1CC[C@H](n2cc3cc(NC(=O)c4cnn5cccnc45)c(OCC4CC4)cc3n2)CC1 (stereo partly drawn) [Example 359] | < 1 nM | 80 to 90% | A (A represents a DC90 value <10.0 nM) | > 8.00 | > 8.00 | ≥ 90% | 80 to 90% |
| O=C1CCC(N2C(=O)c3ccc(N4CC5(C4)CN([C@H]4CC[C@H](n6cc7cc(NC(=O)c8cnn9cccnc89)c(OCC8CC8)cc7n6)CC4)C5)cc3C2=O)C(=O)N1 (stereo partly drawn) [Example 360] | 1 to 5 nM | ≥ 90% | B (B represents a DC90 value ≥10.0 nM and <25.0 nM) | > 8.00 | > 8.00 | ≥ 90% | 80 to 90% |
| CN(C1CN(c2ccc3c(c2F)CN(C2CCC(=O)NC2=O)C3=O)C1)[C@H]1CC[C@H](n2cc3cc(NC(=O)c4cnn5cccnc45)c(OCC(F)F)cc3n2)CC1 (stereo partly drawn) [Example 362] | < 1 nM | ≥ 90% | A (A represents a DC90 value <10.0 nM) | > 8.00 | 7.30 to 8.00 | ≥ 90% | 70 to 80% |
| CC(C)Oc1cc2c(cc1NC(=O)c1cnn3cccnc13)CN([C@H]1CC[C@H](N(C)C3CN(c4ccc5c(c4F)CN(C4CCC(=O)NC4=O)C5=O)C3)CC1)C2=O (stereo partly drawn) [Example 364] | 1 to 5 nM | ≥ 90% | A (A represents a DC90 value <10.0 nM) | > 8.00 | 7.00 to 7.30 | ≥ 90% | < 70% |
| CC(C)Oc1cc2c(cc1NC(=O)c1cnn3cccnc13)CN([C@H]1CC[C@H](N(C)CC3(F)CN(c4ccc5c(c4)C(=O)N(C4CCC(=O)NC4=O)C5=O)C3)CC1)C2=O (stereo partly drawn) [Example 365] | 1 to 5 nM | ≥ 90% | A (A represents a DC90 value <10.0 nM) | 7.30 to 8.00 | > 8.00 | ≥ 90% | < 70% |
| CC(C)Oc1cc2c(cc1NC(=O)c1cnn3cccnc13)CN([C@H]1CC[C@H](N3CC4(CN(c5ccc6c(c5)C(=O)N(C5CCC(=O)NC5=O)C6=O)C4)C3)CC1)C2=O (stereo partly drawn) [Example 366] | 1 to 5 nM | ≥ 90% | A (A represents a DC90 value <10.0 nM) | > 8.00 | > 8.00 | ≥ 90% | 80 to 90% |
| CN(C1CN(c2ccc(C(=O)NC3CCC(=O)NC3=O)c(F)c2)C1)[C@H]1CC[C@H](n2cc3cc(NC(=O)c4cnn5cccnc45)c(OCC4CC4)cc3n2)CC1 (stereo partly drawn) [Example 368] | 1 to 5 nM | ≥ 90% | A (A represents a DC90 value <10.0 nM) | 7.30 to 8.00 | 7.30 to 8.00 | ≥ 90% | 70 to 80% |
| CCN(C1CN(c2ccc(C(=O)NC3CCC(=O)NC3=O)c(F)c2)C1)[C@H]1CC[C@H](n2cc3cc(NC(=O)c4cnn5cccnc45)c(OCC4CC4)cc3n2)CC1 (stereo partly drawn) [Example 369] | 1 to 5 nM | ≥ 90% | A (A represents a DC90 value <10.0 nM) | 7.30 to 8.00 | 7.30 to 8.00 | ≥ 90% | < 70% |
| CN(C1CN(c2ccc3c(c2)CN(C2CCC(=O)NC2=O)C3=O)C1)[C@H]1CC[C@H](N2Cc3cc(NC(=O)c4cnn5cccnc45)c(N4CCC(N5CCC5)CC4)cc3C2=O)CC1 (stereo partly drawn) [Example 370] | 1 to 5 nM | ≥ 90% | A (A represents a DC90 value <10.0 nM) | > 8.00 | > 8.00 | ≥ 90% | ≥ 90% |
| CN(C1CCN(c2ccc3c(c2)C(=O)N(C2CCC(=O)NC2=O)C3=O)CC1)[C@H]1CC[C@H](N2Cc3cc(NC(=O)c4cnn5cccnc45)c(N4CCN(CC(F)F)CC4)cc3C2=O)CC1 (stereo partly drawn) [Example 371] | < 1 nM | ≥ 90% | B (B represents a DC90 value ≥10.0 nM and <25.0 nM) | 7.30 to 8.00 | 7.30 to 8.00 | ≥ 90% | 70 to 80% |
| CN([C@H]1CC[C@H](n2cc3cc(NC(=O)c4cnn5cccnc45)c(OCC4CC4)cc3n2)CC1)[C@H]1C[C@H](Oc2ccc3c(c2)C(=O)N(C2CCC(=O)NC2=O)C3=O)C1 (stereo partly drawn) [Example 372] | < 1 nM | ≥ 90% | A (A represents a DC90 value <10.0 nM) | 7.30 to 8.00 | > 8.00 | ≥ 90% | 80 to 90% |
| O=C1CCC(N2C(=O)c3ccc(O[C@H]4C[C@H](N[C@H]5CC[C@H](n6cc7cc(NC(=O)c8cnn9cccnc89)c(OCC8CC8)cc7n6)CC5)C4)cc3C2=O)C(=O)N1 (stereo partly drawn) [Example 374] | < 1 nM | ≥ 90% | B (B represents a DC90 value ≥10.0 nM and <25.0 nM) | 7.30 to 8.00 | 7.30 to 8.00 | ≥ 90% | 70 to 80% |
| O=C1CCC(NC(=O)c2ccc(O[C@H]3C[C@H](N[C@H]4CC[C@H](n5cc6cc(NC(=O)c7cnn8cccnc78)c(OCC7CC7)cc6n5)CC4)C3)cc2F)C(=O)N1 (stereo partly drawn) [Example 376] | 1 to 5 nM | ≥ 90% | A (A represents a DC90 value <10.0 nM) | 7.30 to 8.00 | 7.30 to 8.00 | ≥ 90% | 70 to 80% |
| Cn1c(=O)n(C2CCC(=O)NC2=O)c2cccc(N3CC(CN4CCC(n5cc6cc(NC(=O)c7cnn8cccnc78)c(OCC7CC7)cc6n5)CC4)C3)c21 (stereo not drawn) [Example 378, N-(6-(cyclopropylmethoxy)-2-(1-((1-(1-(2,6-dioxopiperidin-3-yl)-3-methyl-2-oxo-2,3-dihydro-1H-benzo[d]imidazol-4-yl)azetidin-3-yl)methyl)piperidin-4-yl)-2H-indazol-5-yl)pyrazolo[1,5-a]pyrimidine-3-carboxamide] | < 1 nM | ≥ 90% | A (A represents a DC90 value <10.0 nM) | > 8.00 | > 8.00 | ≥ 90% | 80 to 90% |

Further lines, with some results ahead:

| DC50 (IRAK-4) | Dmax (IRAK-4) | PBMC DC90 (IRAK-4) | pIC50 (IL6 [1]) | pIC50 (IL6 [2]) | SMILES | Dmax (IL6 [1]) | Dmax (IL6 [2]) |
| --- | --- | --- | --- | --- | --- | --- | --- |
| < 1 nM | 70 to 80% | A (A represents a DC90 value <10.0 nM) | > 8.00 | > 8.00 | CN(CC1CCN(c2ccc3c(c2)C(=O)N(C2CCC(=O)NC2=O)C3=O)CC1)[C@H]1CC[C@H](n2cc3cc(NC(=O)c4cnn5cccnc45)c(OCC(F)F)cc3n2)CC1 (stereo partly drawn) [Example 357] | ≥ 90% | ≥ 90% |
| < 1 nM | < 70% | A (A represents a DC90 value <10.0 nM) | > 8.00 | > 8.00 | CN(C1CCN(c2ccc3c(c2)C(=O)N(C2CCC(=O)NC2=O)C3=O)CC1)[C@H]1CC[C@H](n2cc3cc(NC(=O)c4cnn5cccnc45)c(OCC(F)F)cc3n2)CC1 (stereo partly drawn) [Example 358] | ≥ 90% | 70 to 80% |
| < 1 nM | ≥ 90% | A (A represents a DC90 value <10.0 nM) | > 8.00 | > 8.00 | CN(C1CN(c2ccc3c(c2F)CN(C2CCC(=O)NC2=O)C3=O)C1)[C@H]1CC[C@H](n2cc3cc(NC(=O)c4cnn5cccnc45)c(OCC4CC4)cc3n2)CC1 (stereo partly drawn) [Example 361] | ≥ 90% | 80 to 90% |
| < 1 nM | ≥ 90% | A (A represents a DC90 value <10.0 nM) | 7.30 to 8.00 | 7.30 to 8.00 | CN(C1CN(c2ccc3c(c2)CN(C2CCC(=O)NC2=O)C3=O)C1)[C@H]1CC[C@H](n2cc3cc(NC(=O)c4cnn5cccnc45)c(OCC(F)F)cc3n2)CC1 (stereo partly drawn) [Example 363] | ≥ 90% | 70 to 80% |
| ≥ 10 nM | 80 to 90% | D (D represents a DC90 value ≥50 nM) | 7.30 to 8.00 | 7.30 to 8.00 | O=C1CCC(N2Cc3c(cccc3N3CC4(CCCN(C5CCC(n6cc7cc(NC(=O)c8cnn9cccnc89)c(OCC8CC8)cc7n6)CC5)C4)C3)C2=O)C(=O)N1 (stereo not drawn) [Example 367] | ≥ 90% | 80 to 90% |
| < 1 nM | ≥ 90% | A (A represents a DC90 value <10.0 nM) | 7.30 to 8.00 | 7.30 to 8.00 | CCN([C@H]1CC[C@H](n2cc3cc(NC(=O)c4cnn5cccnc45)c(OCC4CC4)cc3n2)CC1)[C@H]1C[C@H](Oc2ccc3c(c2)C(=O)N(C2CCC(=O)NC2=O)C3=O)C1 (stereo partly drawn) [Example 373] | 80 to 90% | 70 to 80% |
| 1 to 5 nM | ≥ 90% | A (A represents a DC90 value <10.0 nM) | 7.30 to 8.00 | > 8.00 | O=C1CCC(N2C(=O)c3ccc(N4CCN(C[C@H]5CC[C@H](n6cc7cc(NC(=O)c8cnn9cccnc89)c(OCC8CC8)cc7n6)CC5)CC4)cc3C2=O)C(=O)N1 (stereo partly drawn) [Example 375] | ≥ 90% | 70 to 80% |
